Source: PMC10613967, “The anti-cancer efficacy of a novel phenothiazine derivative is independent of dopamine and serotonin receptor inhibition” (Frontiers in Oncology, 2023)
Structures can show the parent of a compound that is named as a salt. Where two headings read alike, the source gives them in different places.

What was measured:
A375 cells [1] = assay: Cell viability assay (Cell-Titer-Blue); type: cell-based, human
Procedure: (§1) Cells were seeded in 96-well plates at a suitable cell density for the growth rates of individual cell lines and the incubation time of the assay. […] Cell viability was determined using Cell-Titer-Blue assay (Promega) according to manufacturer’s instructions. The Synergy HT plate reader (Biotek, Winooski, VT) was used for signal quantification and the fluorescence values were normalized to the vehicle well for each cell line. Absolute IC50 and Growth rate inhibition GR50 ([27]) were calculated with GraphPadPrism software (GraphPad Software, Inc.).

A375 cells [2] = assay: Cell cycle analysis (PI staining, flow cytometry); type: cell-based, human; details: 24h
Procedure: (§2) A375 cells were seeded at 250,000 cells/well in 6-well plates and left to attach overnight. […] For cell cycle analysis, cells were detached with trypsin, fixed in ethanol 70%, treated with RNase A, mixed with propidium iodide, and processed with the Becton Dickinson LSR II flow cytometer. Analysis was performed with ModFit LT software. […] Samples were processed with the Becton Dickinson LSR II flow cytometer, and the analysis was performed with FlowJo software. Annexin V positive and PI negative cells were counted as apoptotic cells.

A375 cells [3] = assay: Immunofluorescence (α-tubulin, pericentrin, DNA); type: cell-based, human; details: 20µM, 24h
Procedure: At the end of the incubation, cells were fixed in 4% PFA, permeabilized in PBS-0.2% Triton X100, and blocked in PBS-2.5% BSA before antibody incubation. Cells were incubated with anti-Tubulin and anti-Pericentrin antibodies overnight at 4°C, and then with secondary antibodies for 1 h at room temperature ( Table 1 ). All antibodies were diluted in PBS-2.5% BSA. The coverslips were then mounted on cover glass with a DAPI (4’,6-diamidino-2-phenylindole)-containing mounting media (Invitrogen P36962, Waltham, MA), and imaged with a Leica SP8 confocal microscope.

A375 cells [4] = assay: Apoptosis assay (Annexin V staining, flow cytometry); type: cell-based, human; details: 24h exposure
Procedure: as §2

[5] = tested on: variety of cancer cell types; details: in vitro; read-out: IC50, cytotoxicity; cited from earlier work
MDA-MB-231 = assay: Cell viability assay (Cell-Titer-Blue); type: cell-based, human; details: 72h; read-out: Calculated IC50
Procedure: as §1

HCC1806 = assay: Cell viability assay (Cell-Titer-Blue); type: cell-based, human; details: 72h; read-out: Calculated IC50
Procedure: (§3) All cell lines were grown at 37°C in a 5% CO2 atmosphere in the ATCC-specified medium containing 10% FBS and 1% NEAA ( Table 1 ).
as §1

ZR-75-1 = assay: Cell viability assay (Cell-Titer-Blue); type: cell-based, human; details: 72h; read-out: Calculated IC50
Procedure: as §3, §1

PC-3 = assay: Cell viability assay (Cell-Titer-Blue); type: cell-based, human; details: 72h; read-out: Calculated IC50
Procedure: as §3, §1

LNCaP = assay: Cell viability assay (Cell-Titer-Blue); type: cell-based, human; details: 72h; read-out: Calculated IC50
Procedure: as §3, §1

DU145 = assay: Cell viability assay (Cell-Titer-Blue); type: cell-based, human; details: 72h; read-out: Calculated IC50
Procedure: as §3, §1

22Rv1 = assay: Cell viability assay (Cell-Titer-Blue); type: cell-based, human; details: 72h; read-out: Calculated IC50
Procedure: as §1

HT29 = assay: Cell viability assay (Cell-Titer-Blue); type: cell-based, human; details: 72h; read-out: Calculated IC50
Procedure: as §1

HCT116 = assay: Cell viability assay (Cell-Titer-Blue); type: cell-based, human; details: 72h; read-out: Calculated IC50
Procedure: as §1

PANC1 = assay: Cell viability assay (Cell-Titer-Blue); type: cell-based, human; details: 72h; read-out: Calculated IC50
Procedure: as §1

BxPC3 = assay: Cell viability assay (Cell-Titer-Blue); type: cell-based, human; details: 72h; read-out: Calculated IC50
Procedure: as §1

A498 = assay: Cell viability assay (Cell-Titer-Blue); type: cell-based, human; details: 72h; read-out: Calculated IC50
Procedure: as §3, §1

786-O = assay: Cell viability assay (Cell-Titer-Blue); type: cell-based, human; details: 72h; read-out: Calculated IC50
Procedure: as §3, §1

HepG2 = assay: Cell viability assay (Cell-Titer-Blue); type: cell-based, human; details: 72h; read-out: Calculated IC50
Procedure: as §3, §1

TCCSUP = assay: Cell viability assay (Cell-Titer-Blue); type: cell-based, human; details: 72h; read-out: Calculated IC50
Procedure: as §3, §1

RT4 = assay: Cell viability assay (Cell-Titer-Blue); type: cell-based, human; details: 72h; read-out: Calculated IC50
Procedure: as §3, §1

U87 = assay: Cell viability assay (Cell-Titer-Blue); type: cell-based, human; details: 72h; read-out: Calculated IC50
Procedure: as §1

U251 = assay: Cell viability assay (Cell-Titer-Blue); type: cell-based, human; details: 72h; read-out: Calculated IC50
Procedure: as §1

SKMEL28 = assay: Cell viability assay (Cell-Titer-Blue); type: cell-based, human; details: 72h; read-out: Calculated IC50
Procedure: as §1

RPMI7951 = assay: Cell viability assay (Cell-Titer-Blue); type: cell-based, human; details: 72h; read-out: Calculated IC50
Procedure: as §1

Hs852T = assay: Cell viability assay (Cell-Titer-Blue); type: cell-based, human; details: 72h; read-out: Calculated IC50
Procedure: as §3, §1

A101D = assay: Cell viability assay (Cell-Titer-Blue); type: cell-based, human; details: 72h; read-out: Calculated IC50
Procedure: as §3, §1

WM-266-4 = assay: Cell viability assay (Cell-Titer-Blue); type: cell-based, human; details: 72h; read-out: Calculated IC50
Procedure: as §3, §1

A2058 = assay: Cell viability assay (Cell-Titer-Blue); type: cell-based, human; details: 72h; read-out: Calculated IC50
Procedure: as §3, §1

[6] = tested on: panel of cancer cell lines; assay: Cell viability assay across the panel of cell lines; type: cell-based, human; details: 72h of drug exposure; read-out: Absolute IC50, range across the panel
Procedure: as §3, §1

In the case of CN(C)CCCN1c2ccccc2Sc2ccc(Cl)cc21 [Chlorpromazine, chlorpromazine hydrochloride], the IC50 (A375 cells [1]; Homo sapiens, A-375, 24h treatment, read-out: IC50, cell viability) is reported as 13.6 µM, the “cells in the G2/M phase” value (A375 cells [2]; 20µM) is reported as 69.8% and the “cell cycle arrest (in words)” value (A375 cells [2]) is reported as “induces a cell cycle arrest in G2/M”. The “mitotic phenotype by immunofluorescence” value (A375 cells [3]) was “cells often appeared binucleated”.
For OCCN1CCN(CCCN2c3ccccc3Sc3ccc(C(F)(F)F)cc32)CC1 [Fluphenazine, fluphenazine hydrochloride], the “concentrations inducing apoptosis (annexin V staining)” value (A375 cells [4]) was at least 20 µM, the “concentrations inducing G0/G1 cell cycle arrest” value (A375 cells [2]) was at least 10 µM and the “mitotic phenotype by immunofluorescence” value (A375 cells [3]) was “dramatic decrease in the number of cells in mitosis”. For the same compound, the IC50 [5] was 5 to 20 µM.
Cl.NCCCCCCNS(=O)(=O)c1cccc2c(Cl)cccc12 [W-7, W-7 hydrochloride] showed an IC50 (MDA-MB-231) of 34.6 µM, an IC50 (HCC1806) of 26.9 µM and an IC50 (ZR-75-1) of 25.2 µM. The IC50 (PC-3) was 40.8 µM, the IC50 (LNCaP) was 36.6 µM and the IC50 (DU145) was 37.3 µM. For the same compound, the IC50 (22Rv1) was 39.1 µM, the IC50 (HT29) was 26.4 µM and the IC50 (HCT116) was 27.9 µM. For the same compound, the IC50 (PANC1) was 32.7 µM, the IC50 (BxPC3) was 38.1 µM and the IC50 (A498) was 28 µM. For the same compound, the IC50 (786-O) was 33.5 µM, the IC50 (HepG2) was 26.8 µM and the IC50 (TCCSUP) was 25.9 µM. The IC50 (RT4) was 45.2 µM, the IC50 (U87) was 56.8 µM and the IC50 (U251) was 30 µM. For the same compound, the IC50 (A375 cells [1]; 72h, read-out: Calculated IC50) was 21.8 µM, the IC50 (SKMEL28) was 29.3 µM and the IC50 (RPMI7951) was 26.5 µM. It also gave an IC50 (Hs852T) of 24.5 µM, an IC50 (A101D) of 26.9 µM and an IC50 (WM-266-4) of 28.2 µM. The IC50 (A2058) was 24.3 µM, the IC50 [6] was 21.8 to 56.8 µM and the “cell cycle arrest (in words)” value (A375 cells [2]) was “did not induce a cell cycle arrest”.
